Consider 31 compounds from patent US11548871B2, “Triazole carbamate pyridyl sulfonamides as LPA receptor antagonists and uses thereof” (Gilead Sciences, Inc., priority 2019, dated 2023).

The assay concerns the target human LPAR1 (Homo sapiens, UniProt Q92633). Kind of assay: LPAR1 intracellular calcium mobilization assay (antagonist mode). For orientation: Calcium assays in cells follow changes in intracellular calcium, usually with a dye or a luminescent sensor.

Molecules are shown by their SMILES. pEC50: −log10 of the molar value.

Sequence of human LPAR1 (Q92633 whole entry): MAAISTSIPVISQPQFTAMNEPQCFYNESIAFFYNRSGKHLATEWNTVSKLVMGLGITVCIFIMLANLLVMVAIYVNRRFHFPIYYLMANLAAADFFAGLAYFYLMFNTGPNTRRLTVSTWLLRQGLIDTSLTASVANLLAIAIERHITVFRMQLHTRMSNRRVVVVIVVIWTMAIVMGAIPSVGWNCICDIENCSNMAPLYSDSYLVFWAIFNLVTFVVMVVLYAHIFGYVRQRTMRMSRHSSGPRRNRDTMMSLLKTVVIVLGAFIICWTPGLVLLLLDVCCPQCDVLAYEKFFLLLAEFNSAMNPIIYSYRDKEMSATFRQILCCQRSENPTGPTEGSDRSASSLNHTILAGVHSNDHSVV

As usually defined, the pEC50 is −log10 of the EC50, conventionally taken in molar units. For the compound `Cc1nc(-c2nnn(C)c2NC(=O)OC(C)c2cncc(F)c2Cl)ccc1NS(C)(=O)=O` (stereo not shown) [Compound 78, 1-(4-chloro-5-fluoropyridin-3-yl)ethyl (1-methyl-4-(6-methyl-5-(methylsulfonamido)pyridin-2-yl)-1H-1,2,3-triazol-5-yl)carbamate], the pEC50 is 6.42.

Take `Cc1ccccc1[C@@H](C)OC(=O)Nc1c(-c2ccc(NS(C)(=O)=O)c(C)n2)nnn1C` [Compound 42, (R)-1-(o-tolyl)ethyl (1-methyl-4-(6-methyl-5-(methylsulfonamido)pyridin-2-yl)-1H-1,2,3-triazol-5-yl)carbamate]: the pEC50 was 7.34. With `CCCCCC[C@H](OC(=O)Nc1c(-c2ccc(NS(C)(=O)=O)c(C)n2)nnn1C)C(F)(F)F` [Compound 51, (S)-1,1,1-trifluorooctan-2-yl (1-methyl-4-(6-methyl-5-(methylsulfonamido)pyridin-2-yl)-1H-1,2,3-triazol-5-yl)carbamate], the pEC50 was 5.90. For `CC(C)NS(=O)(=O)Nc1ccc(-c2nnn(C)c2NC(=O)O[C@H](C)c2cccnc2Cl)nc1` [Compound 160, (R)-1-(2-chloropyridin-3-yl)ethyl (4-(5-((N-isopropylsulfamoyl)amino)pyridin-2-yl)-1-methyl-1H-1,2,3-triazol-5-yl)carbamate], the pEC50 is 6.57. `Cc1nc(-c2nnn(C)c2NC(=O)O[C@H](C)c2cccc(F)c2)ccc1NS(=O)(=O)C(C)C` [Compound 105, (R)-1-(3-fluoro-phenyl)ethyl(1-methyl-4-(6-methyl-5-((1-methylethyl)sulfonamido)pyridin-2-yl)-1H-1,2,3-triazol-5-yl)carbamate]: the pEC50 is 6.56. As to `C[C@@H](OC(=O)Nc1c(-c2ccc(NS(C)(=O)=O)cn2)nnn1C)c1ccccc1Cl` [Compound 10, (R)-1-(2-chlorophenyl)ethyl (1-methyl-4-(5-(methylsulfonamido)pyridin-2-yl)-1H-1,2,3-triazol-5-yl)carbamate], the pEC50 is 7.43. The result for `Cc1nc(-c2nnn(C)c2NC(=O)O[C@H](C)c2cccnc2Cl)ccc1NS(C)(=O)=O` [Compound 68, (R)-1-(2-chloropyridin-3-yl)ethyl (1-methyl-4-(6-methyl-5-(methylsulfonamido)pyridin-2-yl)-1H-1,2,3-triazol-5-yl)carbamate] reads 6.66; that for `Cc1nc(-c2nnn(C)c2NC(=O)O[C@@H](c2ccccc2)C(F)F)ccc1NS(C)(=O)=O` [Compound 57, (S)-2,2-difluoro-1-phenylethyl (1-methyl-4-(6-methyl-5-(methylsulfonamido)pyridin-2-yl)-1H-1,2,3-triazol-5-yl)carbamate], 7.31. The result for `C[C@@H](OC(=O)Nc1c(-c2ccc(NS(=O)(=O)C3CNC3)cn2)nnn1C)c1cccnc1Cl` [Compound 161, (R)-1-(2-chloropyridin-3-yl)ethyl (4-(5-(azetidine-3-sulfonamido)pyridin-2-yl)-1-methyl-1H-1,2,3-triazol-5-yl)carbamate] reads 5.28; that for `Cc1nc(-c2nnn(C)c2NC(=O)OC(C)c2cccnc2F)ccc1NS(C)(=O)=O` (stereo not shown) [Compound 79, 1-(2-fluoropyridin-3-yl)ethyl (1-methyl-4-(6-methyl-5-(methylsulfonamido)pyridin-2-yl)-1H-1,2,3-triazol-5-yl)carbamate], 6.23; that for `Cc1cccc(COC(=O)Nc2c(-c3ccc(NS(C)(=O)=O)c(C)n3)nnn2C)c1` [Compound 37, 3-methylbenzyl (1-methyl-4-(6-methyl-5-(methylsulfonamido)pyridin-2-yl)-1H-1,2,3-triazol-5-yl)carbamate], 6.76.

As for `Cc1nc(-c2nnn(C)c2NC(=O)N[C@H](C)c2ccccc2)ccc1NS(C)(=O)=O` [Compound 64], the pEC50 was 5.56. In the case of `Cc1nc(-c2nnn(C)c2NC(=O)OC(C)c2cc(Cl)nnc2Cl)ccc1NS(C)(=O)=O` (stereo not shown) [Compound 134, 1-(3,6-dichloropyridazin-4-yl)ethyl (1-methyl-4-(6-methyl-5-(methylsulfonamido)pyridin-2-yl)-1H-1,2,3-triazol-5-yl)carbamate], the pEC50 is 5.74. As for `C[C@@H](OC(=O)Nc1c(-c2ccc(NS(C)(=O)=O)cn2)nnn1C)c1cccc(F)c1` [Compound 95, (R)-1-(3-fluorophenyl)ethyl(1-methyl-4-(5-(methylsulfonamido)pyridin-2-yl)-1H-1,2,3-triazol-5-yl)carbamate], the negative-log EC50 (pEC50) is 7.55. On to `Cc1nc(-c2nnn(C)c2NC(=O)O[C@@H](c2ccccc2F)C(F)F)ccc1NS(C)(=O)=O` [Compound 54, (S)-2,2-difluoro-1-(2-fluorophenyl)ethyl (1-methyl-4-(6-methyl-5-(methylsulfonamido)pyridin-2-yl)-1H-1,2,3-triazol-5-yl)carbamate], for which the negative logarithm of the EC50 (pEC50) was 7.04. The result for `Cc1nc(-c2nnn(C)c2NC(=O)OC(CCC2CC2)C(F)(F)F)ccc1NS(C)(=O)=O` (stereo not shown) [Compound 46, 4-cyclopropyl-1,1,1-trifluorobutan-2-yl (1-methyl-4-(6-methyl-5-(methylsulfonamido)pyridin-2-yl)-1H-1,2,3-triazol-5-yl)carbamate] reads 7.04; that for `Cc1nc(-c2nnn(C)c2NC(=O)O[C@H](CF)c2ccccc2)ccc1NS(C)(=O)=O` [Compound 59, (S)-2-fluoro-1-phenylethyl (1-methyl-4-(6-methyl-5-(methylsulfonamido)pyridin-2-yl)-1H-1,2,3-triazol-5-yl)carbamate], 7.42; that for `Cc1ncc(Cl)cc1[C@@H](C)OC(=O)Nc1c(-c2ccc(NS(C)(=O)=O)cn2)nnn1C` [Compound 113, (R)-1-(5-chloro-2-methylpyridin-3-yl)ethyl (1-methyl-4-(5-(methylsulfonamido)pyridin-2-yl)-1H-1,2,3-triazol-5-yl)carbamate], 7.08.

On to `Cc1nc(-c2nnn(C)c2NC(=O)OCc2cc(F)ccc2F)ccc1NS(C)(=O)=O` [Compound 36, 2,5-difluorobenzyl (1-methyl-4-(6-methyl-5-(methylsulfonamido)pyridin-2-yl)-1H-1,2,3-triazol-5-yl)carbamate], for which the negative logarithm of the EC50 (pEC50) is 6.66. For the compound `Cc1nc(-c2nnn(CC#N)c2NC(=O)O[C@H](C)c2ccccc2)ccc1NS(C)(=O)=O` [Compound 99, (R)-1-phenylethyl(1-(cyanomethyl)-4-(6-methyl-5-(methylsulfonamido)pyridin-2-yl)-1H-1,2,3-triazol-5-yl)carbamate], the pEC50 is 7.35. As for `COc1nc(-c2nnn(C)c2NC(=O)O[C@H](C)c2ccccc2)ccc1NS(C)(=O)=O` [Compound 1, (R)-1-phenylethyl (4-(6-methoxy-5-(methylsulfonamido)pyridin-2-yl)-1-methyl-1H-1,2,3-triazol-5-yl)carbamate], the pEC50 was 6.49. The result for `Cc1nc(-c2nnn(C)c2NC(=O)O[C@H](C)c2cc(Cl)ccc2F)ccc1NS(C)(=O)=O` [Compound 56, (R)-1-(5-chloro-2-fluorophenyl)ethyl (1-methyl-4-(6-methyl-5-(methylsulfonamido)pyridin-2-yl)-1H-1,2,3-triazol-5-yl)carbamate] reads 7.22.

With `Cc1nc(-c2nnn(C)c2NC(=O)N[C@@H](c2ccccc2)C(F)F)ccc1NS(C)(=O)=O` [Compound 65, (S)-N-(6-(5-(3-(2,2-difluoro-1-phenylethyl)ureido)-1-methyl-1H-1,2,3-triazol-4-yl)-2-methylpyridin-3-yl)methanesulfonamide], the pEC50 was 5.99. For the compound `Cc1nc(-c2nnn(C)c2NC(=O)OC(C)c2conc2C)ccc1NS(C)(=O)=O` (stereo not shown) [Compound 136, 1-(3-methylisoxazol-4-yl)ethyl (1-methyl-4-(6-methyl-5-(methylsulfonamido)pyridin-2-yl)-1H-1,2,3-triazol-5-yl)carbamate], the pEC50 is 5.42.

As for `Cc1nc(-c2nnn(C)c2NC(=O)OC(C)c2cncc(Cl)c2)ccc1NS(C)(=O)=O` (stereo not shown) [Compound 83, 1-(5-chloropyridin-3-yl)ethyl (1-methyl-4-(6-methyl-5-(methylsulfonamido)pyridin-2-yl)-1H-1,2,3-triazol-5-yl)carbamate], the pEC50 was 6.21. Consider `Cc1nc(-c2nnn(C)c2NC(=O)O[C@H](C)c2cc(F)ccc2F)ccc1NS(C)(=O)=O` [Compound 63, (R)-1-(2,5-difluorophenyl)ethyl (1-methyl-4-(6-methyl-5-(methylsulfonamido)pyridin-2-yl)-1H-1,2,3-triazol-5-yl)carbamate], for which the pEC50 was 7.63. Take `CCCn1nnc(-c2ccc(NS(C)(=O)=O)c(C)n2)c1NC(=O)O[C@H](C)c1ccccc1Cl` [Compound 12, (R)-1-(2-chlorophenyl)ethyl (4-(6-methyl-5-(methylsulfonamido)pyridin-2-yl)-1-propyl-1H-1,2,3-triazol-5-yl)carbamate]: the pEC50 was 6.66. The result for `CC(OC(=O)Nc1c(-c2ccc(NS(C)(=O)=O)cn2)nnn1C)c1c(F)ccnc1Cl` (stereo not shown) [Compound 121, 1-(2-chloro-4-fluoropyridin-3-yl)ethyl (1-methyl-4-(5-(methylsulfonamido)pyridin-2-yl)-1H-1,2,3-triazol-5-yl)carbamate] reads 6.34. Turning to `COc1nc(-c2nnn(C)c2NC(=O)O[C@@H](c2ccccc2)C(F)F)ccc1NS(C)(=O)=O` [Compound 7, (S)-2,2-difluoro-1-phenylethyl (4-(6-methoxy-5-(methylsulfonamido)pyridin-2-yl)-1-methyl-1H-1,2,3-triazol-5-yl)carbamate], the pEC50 was 6.95. Regarding `Cn1nnc(-c2ccc(NS(C)(=O)=O)cn2)c1NC(=O)O[C@H](CF)c1cccc(F)c1` [Compound 22, (S)-2-fluoro-1-(3-fluorophenyl)ethyl (1-methyl-4-(5-(methylsulfonamido)pyridin-2-yl)-1H-1,2,3-triazol-5-yl)carbamate], the pEC50 is 8.06.

`Cc1nc(-c2nnn(C)c2NC(=O)OC(C)c2cccnc2C)ccc1NS(C)(=O)=O` (stereo not shown) [Compound 81, 1-(2-methylpyridin-3-yl)ethyl (1-methyl-4-(6-methyl-5-(methylsulfonamido)pyridin-2-yl)-1H-1,2,3-triazol-5-yl)carbamate]: the pEC50 was 6.06.
